Patent US11679097B2, “Combination product containing limonoid compound and biguanide compound” (ZHEJIANG YANGSHENGTANG INSTITUTE OF NATURAL MEDICATION CO., …, priority 2017, dated 2023)

Test system: STZ mice
Assay: Blood glucose in mouse pancreatic islet β-cell injury model (Example 1)
Format: in vivo
Conditions: STZ ICR mice; single administration 0.02 g/kg per day by gavage, two weeks; 1 h after last administration
From the text: Effects of a Limonoid Compound, Metformin or a Combination Thereof on Blood Glucose in a Mouse Pancreatic Islet β-Cell Injury Model In this example, a mouse pancreatic islet β-cell injury model was established by modeling ICR mice with streptozotocin (STZ) (referred to the prior art literature: Li Nan et al., Protective effect of pine pollen on kidney damage in diabetic nephropathy mice, Science and Technology Review, 2014, 32 (4/5): 95-99), and used to complete the evaluation of hypoglycemic effect in animals (this model could simulate pancreatic islet β-cell damage state of type I and type II diabetics). […] Conditions of experimental feeding: ICR mice (20±2 g), aged 6 weeks, purchased from Zhejiang Academy of Medical Sciences, and subjected to experimental feeding after 7 days of preliminary feeding. […] The experimental feed was mouse growth-stable feed (GB […]), and the daily feeding and management of the animals were under the responsibility of the animal security department, which provided the animals with sufficient padding and fresh drinking water daily. Experimental grouping: 15 male mice were randomly selected as the normal control group. […] Gavage doses: the gavage dose was 0.02 g/kg per day for the limonin group, the gavage dose was 0.02 g/kg per day for the isolimonic acid group, the gavage dose was 0.02 g/kg per day for the limonin 17-β-D-glucopyranoside group, the gavage dose of metformin was 0.02 g/kg per day for the metformin group, limonin at a dose of 0.01 g/kg and metformin at a dose of 0.01 g/kg were simultaneously gavaged per day for the limonin/metformin combination group, isolimonic acid at a dose of 0.01 g/kg and metformin at a dose of 0.01 g/kg were simultaneously gavaged per day for the isolimonic acid/metformin combination group, limonin 17-β-D-glucopyranoside at a dose of 0.01 g/kg and metformin at a dose of 0.01 g/kg were simultaneously gavaged per day for the limonin 17-β-D-glucopyranoside/metformin combination group, isolimonic acid 17-β-D-glucopyranoside at a dose of 0.01 g/kg and metformin at a dose of 0.01 g/kg were simultaneously gavaged per day for the isolimonic acid 17-β-D-glucopyranoside/metformin combination group, the gavage volume was 10 mL/kg, and the normal group and the model group were administrated with 10 mL/kg of distilled water. […] SPSS 16.0 software was used for statistical analysis. The data were expressed as mean and standard deviation. The data before and after were analyzed by t-test, and P<0.05 was considered statistically significant.

CN(C)C(=N)NC(=N)N [Metformin, N,N-dimethylimidodicarbonimidic diamide, reference compound]
Blood glucose value: 22.6 ± 3.9 mmol/L
